# Assay results reported in patent US20050112573A1, “Method of detecting toxic substance” (priority 2001, published 2005).
# Tested on: yeast genes (level of expressed mRNA)
# Assay: DNA chip analysis of expressed mRNA of yeast genes after 2 h culture with a toxic chemical substance
# Format: cell-based, Saccharomyces cerevisiae S288C
# Method in brief: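 S. cerevisiae S288C in YPD at 25 °C was exposed at log phase for 2 h to a growth-inhibiting, non-lethal concentration of the chemical. Poly(A) mRNA was reverse-transcribed with Cy3- or Cy5-dUTP and hybridized to a whole-genome yeast DNA chip (65 °C, >12 h). Values are fluorescence ratios versus untreated cells.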
substance,measurement,setting,value
γ-hexachlorocyclohexane [(7)],The level of expressed mRNA in the presence of chemical substance/,"yeast gene YNL074C, ratio to control without chemical substance, 2 h culture",1.1
same,The level of expressed mRNA in the presence of chemical substance/,"yeast gene YNL092W, ratio to control without chemical substance, 2 h culture",1.6
same,The level of expressed mRNA in the presence of chemical substance/The level of expressed mRNA in the absence of chemical substance,yeast gene YNL093W,1.4
same,The level of expressed mRNA in the presence of chemical substance/,"yeast gene YNL115C, ratio to control without chemical substance, 2 h culture",2.4
same,The level of expressed mRNA in the presence of chemical substance/,"yeast gene YNL156C, ratio to control without chemical substance, 2 h culture",1.9
same,The level of expressed mRNA in the presence of chemical substance/,"yeast gene YNL234W, ratio to control without chemical substance, 2 h culture",1.2
same,The level of expressed mRNA in the presence of chemical substance/,"yeast gene YNL281W, ratio to control without chemical",1.2
same,The level of expressed mRNA in the presence of chemical substance/,"yeast gene YNL305C, ratio to control without chemical",1.7
same,The level of expressed mRNA in the presence of chemical substance/The level of expressed mRNA in the absence of chemical substance,yeast gene YNL333W,2.9
same,The level of expressed mRNA in the presence of chemical substance/The level of expressed mRNA in the absence of chemical substance,yeast gene YNR010W,1.5
same,The level of expressed mRNA in the presence of chemical substance/,"yeast gene YNR068C, ratio to control without chemical",1.8
same,The level of expressed mRNA in the presence of chemical substance/The level of expressed mRNA in the absence of chemical substance,yeast gene YNR069C,1.4
same,The level of expressed mRNA in the presence of chemical substance/in the absence of chemical substance,yeast gene YNR072W,1.5
same,The level of expressed mRNA in the presence of chemical substance/The level of expressed mRNA in the absence of chemical substance,yeast gene YOL013C,1.7
same,The level of expressed mRNA in the presence of chemical substance/,"yeast gene YOL032W, ratio to control without chemical",1.4
same,The level of expressed mRNA in the presence of chemical substance/,"yeast gene YOL036W, ratio to control without chemical",1.0
same,The level of expressed mRNA in the presence of chemical substance/,"yeast gene YOL047C, ratio to control without chemical",1.3
same,The level of expressed mRNA in the presence of chemical substance/,"yeast gene YOL071W, ratio to control without chemical",2.0
same,The level of expressed mRNA in the presence of chemical substance/,"yeast gene YOL082W, ratio to control without chemical",2.5
same,The level of expressed mRNA in the presence of chemical substance/,"yeast gene YOL083W, ratio to control without chemical",3.1
same,The level of expressed mRNA in the presence of chemical substance/in the absence of chemical substance,yeast gene YOL096C,1.7
same,The level of expressed mRNA in the presence of chemical substance/,"yeast gene YOL117W, ratio to control without chemical",1.6
same,The level of expressed mRNA in the presence of chemical substance/,"yeast gene YOL131W, ratio to control without chemical",1.3
same,The level of expressed mRNA in the presence of chemical substance/,"yeast gene YOL150C, ratio to control without chemical substance, 2 h culture",2.4
same,The level of expressed mRNA in the presence of chemical substance/,"yeast gene YOL162W, ratio to control without chemical",2.0
same,The level of expressed mRNA in the presence of chemical substance/The level of expressed mRNA in the absence of chemical substance,yeast gene YOL164W,2.2
same,The level of expressed mRNA in the presence of chemical substance/,"yeast gene YOR019W, ratio to control without chemical",2.8
same,The level of expressed mRNA in the presence of chemical substance/The level of expressed mRNA in the absence of chemical substance,yeast gene YOR036W,1.8
same,The level of expressed mRNA in the presence of chemical substance/The level of expressed mRNA in the absence of chemical substance,yeast gene YOR117W,3.3
same,The level of expressed mRNA in the presence of chemical substance/The level of expressed mRNA in the absence of chemical substance,yeast gene YOR124C,1.1
same,The level of expressed mRNA in the presence of chemical substance/The level of expressed mRNA in the absence of chemical substance,yeast gene YOR132W,1.4
same,The level of expressed mRNA in the presence of chemical substance/The level of expressed mRNA in the absence of chemical substance,yeast gene YOR157C,1.2
same,The level of expressed mRNA in the presence of chemical substance/in the absence of chemical substance,yeast gene YOR180C,0.8
same,The level of expressed mRNA in the presence of chemical substance/The level of expressed mRNA in the absence of chemical substance,yeast gene YOR181W,0.7
same,The level of expressed mRNA in the presence of chemical substance/The level of expressed mRNA in the absence of chemical substance,yeast gene YOR185C,1.3
same,The level of expressed mRNA in the presence of chemical substance/,"yeast gene YOR197W, ratio to control without chemical",0.9
same,The level of expressed mRNA in the presence of chemical substance/The level of expressed mRNA in the absence of chemical substance,yeast gene YOR198C,1.6
same,The level of expressed mRNA in the presence of chemical substance/The level of expressed mRNA in the absence of chemical substance,yeast gene YOR259C,1.3
same,The level of expressed mRNA in the presence of chemical substance/The level of expressed mRNA in the absence of chemical substance,yeast gene YOR261C,1.9
same,The level of expressed mRNA in the presence of chemical substance/The level of expressed mRNA in the absence of chemical substance,yeast gene YOR288C,2.0
same,The level of expressed mRNA in the presence of chemical substance/The level of expressed mRNA in the absence of chemical substance,yeast gene YOR355W,1.1
same,The level of expressed mRNA in the presence of chemical substance/in the absence of chemical substance,yeast gene YOR363C,0.7
same,The level of expressed mRNA in the presence of chemical substance/The level of expressed mRNA in the absence of chemical substance,yeast gene YOR383C,8.0
same,The level of expressed mRNA in the presence of chemical substance/,"yeast gene YPL087W, ratio to control without chemical",4.2
same,The level of expressed mRNA in the presence of chemical substance/The level of expressed mRNA in the absence of chemical substance,yeast gene YPL089C,0.9
same,The level of expressed mRNA in the presence of chemical substance/The level of expressed mRNA in the absence of chemical substance,yeast gene YPL109C,1.8
same,The level of expressed mRNA in the presence of chemical substance/The level of expressed mRNA in the absence of chemical substance,yeast gene YPL149W,1.2
same,The level of expressed mRNA in the presence of chemical substance/The level of expressed mRNA in the absence of chemical substance,yeast gene YPL154C,1.5
same,The level of expressed mRNA in the presence of chemical substance/,"yeast gene YPL196W, ratio to control without chemical",2.4
same,The level of expressed mRNA in the presence of chemical substance/,"yeast gene YPL206C, ratio to control without chemical",1.2
same,The level of expressed mRNA in the presence of chemical substance/,"yeast gene YPL222W, ratio to control without chemical",1.1
same,The level of expressed mRNA in the presence of chemical substance/,"yeast gene YPR023C, ratio to control without chemical",1.2
same,The level of expressed mRNA in the presence of chemical substance/The level of expressed mRNA in the absence of chemical substance,yeast gene YPR103W,1.6
same,The level of expressed mRNA in the presence of chemical substance/The level of expressed mRNA in the absence of chemical substance,yeast gene YPR108W,1.6
same,The level of expressed mRNA in the presence of chemical substance/,"yeast gene YPR151C, ratio to control without chemical",4.4
same,The level of expressed mRNA in the presence of chemical substance/in the absence of chemical substance,yeast gene YPR184W,1.3
